Test results: the NIST ThermoML archive (doi:10.1016/j.tca.2012.08.009)
Numbers after ± are expanded uncertainties.

Tests used:
[1] = cn = amount concentration of the nth substance listed, in mol/dm3; settings: 298.15 K, 101 kPa, Liquid; for molar conductivity: Alternating current cell with electrodes; for viscosity: Capillary tube (Ostwald / Ubbelohde) method; for speed of sound: Linear variable-path acoustic interferometer; for mass density: Vibrating tube method
[2] = refractive index (Na D-line) (dimensionless); cn = amount concentration of the nth substance listed, in mol/dm3; settings: 298.15 K, 101 kPa, Liquid, Standard Abbe refractometry

[Cl-].[Li+] [lithium chloride] + C1COCO1
Settings	mass density [kg/m3]	molar conductivity [S·m2/mol]	refractive index	speed of sound [m/s]	viscosity [mPa·s]
[1], c1 = 3.525e-05	–	0.003047 ± 1.8e-05	–	–	–
[1], c1 = 3.871e-05	–	0.002972 ± 1.8e-05	–	–	–
[1], c1 = 4.453e-05	–	0.002875 ± 1.7e-05	–	–	–
[1], c1 = 4.924e-05	–	0.002803 ± 1.7e-05	–	–	–
[1], c1 = 5.609e-05	–	0.00273 ± 1.6e-05	–	–	–
[1], c1 = 6.159e-05	–	0.002693 ± 1.6e-05	–	–	–
[1], c1 = 6.635e-05	–	0.002673 ± 1.6e-05	–	–	–
[1], c1 = 7.162e-05	–	0.002663 ± 1.6e-05	–	–	–
[1], c1 = 7.442e-05	–	0.002672 ± 1.6e-05	–	–	–
[1], c1 = 7.691e-05	–	0.002715 ± 1.6e-05	–	–	–
[1], c1 = 7.721e-05	–	0.002746 ± 1.6e-05	–	–	–
[1], c1 = 7.779e-05	–	0.002778 ± 1.7e-05	–	–	–
[1], c1 = 0.0142	1058.75 ± 0.68	–	–	1344.6 ± 2.2	0.597 ± 0.009
[1], c1 = 0.0284	1058.9 ± 0.68	–	–	1356.8 ± 2.2	0.598 ± 0.009
[1], c1 = 0.0426	1059.11 ± 0.68	–	–	1373.9 ± 2.2	0.601 ± 0.009
[1], c1 = 0.0568	1059.4 ± 0.68	–	–	1394.7 ± 2.2	0.603 ± 0.009
[1], c1 = 0.071	1059.75 ± 0.68	–	–	1420.8 ± 2.3	0.606 ± 0.009
[1], c1 = 0.0852	1060.14 ± 0.68	–	–	1451.4 ± 2.3	0.608 ± 0.009
[2], c1 = 0.0142	–	–	1.398 ± 0.0006	–	–
[2], c1 = 0.0284	–	–	1.3988 ± 0.0006	–	–
[2], c1 = 0.0426	–	–	1.3994 ± 0.0006	–	–
[2], c1 = 0.0568	–	–	1.4 ± 0.0006	–	–
[2], c1 = 0.071	–	–	1.4005 ± 0.0006	–	–
[2], c1 = 0.0852	–	–	1.401 ± 0.0006	–	–

[I-].[Li+] [lithium iodide] + C1COCO1
Settings	mass density [kg/m3]	molar conductivity [S·m2/mol]	refractive index	speed of sound [m/s]	viscosity [mPa·s]
[1], c1 = 8.17e-06	–	0.001792 ± 1.1e-05	–	–	–
[1], c1 = 1.498e-05	–	0.000612 ± 4e-06	–	–	–
[1], c1 = 2.075e-05	–	0.000192 ± 1e-06	–	–	–
[1], c1 = 2.568e-05	–	0.000191 ± 1e-06	–	–	–
[1], c1 = 2.997e-05	–	0.000418 ± 3e-06	–	–	–
[1], c1 = 3.702e-05	–	0.000994 ± 6e-06	–	–	–
[1], c1 = 4.495e-05	–	0.001751 ± 1.1e-05	–	–	–
[1], c1 = 5.081e-05	–	0.00241 ± 1.4e-05	–	–	–
[1], c1 = 5.66e-05	–	0.003074 ± 1.8e-05	–	–	–
[1], c1 = 6.421e-05	–	0.003828 ± 2.3e-05	–	–	–
[1], c1 = 6.958e-05	–	0.004382 ± 2.6e-05	–	–	–
[1], c1 = 7.293e-05	–	0.004735 ± 2.8e-05	–	–	–
[1], c1 = 0.0142	1058.82 ± 0.68	–	–	1350.6 ± 2.2	0.601 ± 0.009
[1], c1 = 0.0284	1059.06 ± 0.68	–	–	1377.7 ± 2.3	0.607 ± 0.009
[1], c1 = 0.0427	1059.4 ± 0.68	–	–	1416.8 ± 2.3	0.614 ± 0.009
[1], c1 = 0.057	1059.82 ± 0.68	–	–	1469.7 ± 2.4	0.621 ± 0.009
[1], c1 = 0.0714	1060.32 ± 0.68	–	–	1539.7 ± 2.6	0.628 ± 0.009
[1], c1 = 0.0858	1060.86 ± 0.68	–	–	1630.2 ± 2.7	0.635 ± 0.009
[2], c1 = 0.0142	–	–	1.3988 ± 0.0006	–	–
[2], c1 = 0.0284	–	–	1.3997 ± 0.0006	–	–
[2], c1 = 0.0427	–	–	1.4004 ± 0.0006	–	–
[2], c1 = 0.057	–	–	1.4011 ± 0.0006	–	–
[2], c1 = 0.0714	–	–	1.4018 ± 0.0006	–	–
[2], c1 = 0.0858	–	–	1.4024 ± 0.0006	–	–
